In patent publication US10973840B2, “Methods of sensitizing tumor cells to weak base chemotherapeutic drugs” (SOCPRA SCIENCES SANTÉ ET HUMAINES S.E.C., priority 2017, dated 2021):
Like-named read-outs stand apart in the source and are kept apart here.

Assays:
[1] = tested on: HT-1080 fibrosarcoma cells; test: MTT cell viability assay, HT-1080; assay type: cell-based, human; conditions: for Fold change: HT-1080, IC50 at 1% O2 to IC50 at 21% O2; for IC50: Homo sapiens
Protocol: (§1) Cells (5×10^3) were cultured in 96-well plates and pre-incubated under 21% O2 or 1% O2 for 4 h following the addition of drugs for 72 h. Cell viability was measured using the 3-(4,5-dimethylthiazol-2-yl)-2,5-diphenyltetrazolium bromide (MTT) dye (Life Technologies) according to manufacturer's instructions. Because hypoxic conditions may affect the reduction of MTT to formazan, incubation of all cell cultures with MTT were performed under normoxic conditions. Each experiment was performed in triplicate and at least three independent experiments were performed. Log-scale dose-response data were plotted on a graph and a three-parameter non-linear regression was applied to determine IC50 values. For calculation of the IC50s, both normoxic and hypoxic drug-treated samples were normalized with their untreated counterpart.
(§2) To assess the role of pH in hypoxia-induced resistance to anthracyclines, the human breast cancer MDA-MB-231 and fibrosarcoma HT-1080 cell lines were incubated in the presence or absence of the commonly used anthracycline drugs, doxorubicin (Dox), daunorubicin (Dau) and the anthracycline analog drug, mitoxantrone (Mtx), under hypoxic (1% O2) or normoxic (21% O2) conditions for 72 hours. Cell viability was then assessed using the MTT assay. The impact of extracellular pH on Dox uptake by HT-1080 was also assessed.

[2] = tested on: NHE6 or NHE9 knockdown cells; test: MTT cell viability assay in NHE6 or NHE9 knockdown cells; assay type: cell-based, human; conditions: for IC50: Homo sapiens
Protocol: Lentiviruses and cell transduction pLKO.1-NHE6 and pLKO.1-NHE9 shRNA (Sigma-Aldrich) were co-transfected with ViraPower™ Lentiviral Packaging Mix (Invitrogen) into HEK293T cells according to manufacturer's instructions. Viruses were collected and concentrated by ultracentrifugation 72 h after transfection. HT-1080 and MDA-MB-231 cells were infected overnight with viruses and selected with puromycin (2 μg/ml) on the third day following transduction.
as §1

[3] = tested on: MDA-MB-231 breast cancer cells; test: MTT cell viability assay, MDA-MB-231; assay type: cell-based, human; conditions: for IC50: Homo sapiens; for Fold change: MDA-MB-231, IC50 at 1% O2 to IC50 at 21% O2
Protocol: as §1, §2

[4] = tested on: HT1080 cancer cell line; test: MTT assay, doxorubicin with C2 or C2WY→AA peptide; assay type: cell-based; conditions: Homo sapiens
Protocol: The IC50 (half-maximal inhibitory concentration) values of doxorubicin for HT1080 cancer cell line treated with the C2 peptide ([…] (SEQ ID NO: 7)) or the C2WY→AA peptide ([…] (SEQ ID NO: 60)) were determined in normoxia or hypoxia.
Cells (5×10^3) were cultured in 96-well plates and preincubated under 21% O2 or 1% O2 for 4 h following the addition of doxorubicin (dose response from 10^−1 to 10^5 nM) in the presence or absence of C2 and C2WY→AA peptides (SEQ ID NOs: 7 and 60) for 72 h. Cell viability was measured using the MTT dye (Life Technologies) according to the manufacturer's instructions. Because hypoxic conditions may affect the reduction of MTT to formazan, incubation of all cell cultures with MTT were performed under normoxic conditions. Each experiment was performed in triplicate. Log-scale dose-response data were plotted on a graph and a three-parameter nonlinear regression was applied to determine IC50 values. Data are presented as the mean (nM).

[5] = tested on: HT-1080 overexpressing NHE6^527-588 peptide; test: MTT cell viability assay in HT-1080 expressing NHE6^527-588 or scrambled peptide; assay type: cell-based, human; conditions: for IC50: Homo sapiens, read-out: IC50 of doxorubicin
Protocol: peGFP-N3-NHE6 was generously provided by Hiroshi Kanazawa (Osaka University, Japan). pcDNA3-HA/NHE6 was constructed from peGFP-N3-NHE6. For this, the entire NHE6 coding sequence was excised with BamHI and EcoRI restriction enzymes and cloned in pcDNA3-HA vector. pcDNA3-HA/NHE6^527-588 was designed from pcDNA3-HA/NHE6 using the following primers: […]
HT-1080 cells were stably transfected with Polyethylenimine (PEI, MirusBio) and positive cells were selected with Geneticin™ (G418) at 400 μg/mL. In the case of MDA-MB-231 cells, plasmids were transfected using Lipofectamine™ 2000 ([…]) and G418 was added to cell cultures at a concentration of 2 mg/mL.
as §1
The middle portion (position 527-588) of the NHE6 cytoplasmic tail has previously been reported to interact with RACK1^31. Stable HT-1080 cells expressing the NHE6^527-588 fragment or a scrambled counterpart were generated.

[6] = Baf 100 nM or Cq 10 μM where combined

COc1cccc2c1C(=O)c1c(O)c3c(c(O)c1C2=O)C[C@@](O)(C(=O)CO)C[C@@H]3O[C@H]1C[C@H](N)[C@H](O)[C@H](C)O1 [Dox, doxorubicin]
Fold change [1]: 4.1 fold | Fold change [1, 6]: 4.0 fold | increase in resistance toward the drug by hypoxia ([1]; HT-1080 cells (so in the source), 1% O2 vs 21% O2): 5.5 fold | IC50 ([1]; HT-1080, 72 h, HT-1080, 1% O2, 72 h, read-out: IC50 of anthracyclines): 301 nM | IC50 ([1]; HT-1080, 72 h, HT-1080, 21% O2, 72 h, read-out: IC50 of anthracyclines): 73.4 nM | IC50 ([1]; HT-1080, HT-1080, 1% O2, Baf 100 nM or Cq 10 μM where combined, read-out: IC50 of doxorubicin, cells treated with neutralizing agents): 448 nM | IC50 ([1]; HT-1080, HT-1080, 21% O2, Baf 100 nM or Cq 10 μM where combined, read-out: IC50 of doxorubicin, cells treated with neutralizing agents): 113 nM | IC50 ([2]; scrambled shRNA, 1% O2): 459 nM | IC50 ([2]; scrambled shRNA, 21% O2): 179 nM | IC50 ([2]; shRNA NHE6, 21% O2): 421 nM | IC50 ([2]; shRNA NHE9, 21% O2): 202 nM | increase in cell resistance to Dox ([2]; NHE6 knockdown, normoxic cells): 2.4 fold | Fold (compared to scrambled 21% O2) ([2]; scrambled shRNA, 1% O2): 2.5 fold | Fold (compared to scrambled 21% O2) ([2]; scrambled shRNA, 21% O2): 1.0 fold | Fold (compared to scrambled 21% O2) ([2]; shRNA NHE6, 21% O2): 2.4 fold | Fold (compared to scrambled 21% O2) ([2]; shRNA NHE9, 21% O2): 1.1 fold | IC50 ([3]; MDA-MB-231, 72 h, MDA-MB-231, 1% O2, 72 h, read-out: IC50 of anthracyclines): 688 nM | IC50 ([3]; MDA-MB-231, 72 h, MDA-MB-231, 21% O2, 72 h, read-out: IC50 of anthracyclines): 125 nM | IC50 ([3]; MDA-MB-231, MDA-MB-231, 1% O2, Baf 100 nM or Cq 10 μM where combined, read-out: IC50 of doxorubicin, cells treated with neutralizing agents): 852 nM | IC50 ([3]; MDA-MB-231, MDA-MB-231, 21% O2, Baf 100 nM or Cq 10 μM where combined, read-out: IC50 of doxorubicin, cells treated with neutralizing agents): 168 nM | Fold change [3]: 5.5 fold | Fold change [3, 6]: 5.1 fold | IC50 ([4]; HT-1080, Experiment 1, peptide: Vehicle, 1% O2): 83.8 nM | IC50 ([4]; HT-1080, Experiment 1, peptide: Vehicle, 21% O2): 16 nM | IC50 ([4]; HT-1080, Experiment 1, with C2 0.25 μM, 1% O2): 39.7 nM | IC50 ([4]; HT-1080, Experiment 1, with C2 0.25 μM, 21% O2): 12.2 nM | IC50 ([4]; HT-1080, Experiment 1, with C2 5.00 μM, 1% O2): 39.1 nM | IC50 ([4]; HT-1080, Experiment 1, with C2 5.00 μM, 21% O2): 17.2 nM | IC50 ([4]; HT-1080, Experiment 1, with C2WY→AA 0.25 μM, 1% O2): 99.1 nM | IC50 ([4]; HT-1080, Experiment 1, with C2WY→AA 0.25 μM, 21% O2): 21.3 nM | IC50 ([4]; HT-1080, Experiment 1, with C2WY→AA 5.00 μM, 1% O2): 76.4 nM | IC50 ([4]; HT-1080, Experiment 1, with C2WY→AA 5.00 μM, 21% O2): 16.4 nM | IC50 ([4]; HT-1080, Experiment 2, peptide: Vehicle, 1% O2): 70 nM | IC50 ([4]; HT-1080, Experiment 2, peptide: Vehicle, 21% O2): 13.4 nM | IC50 ([4]; HT-1080, Experiment 2, with C2 0.25 μM, 1% O2): 30.6 nM | IC50 ([4]; HT-1080, Experiment 2, with C2 0.25 μM, 21% O2): 11.7 nM | IC50 ([4]; HT-1080, Experiment 2, with C2 20.0 μM, 1% O2): 15.7 nM | IC50 ([4]; HT-1080, Experiment 2, with C2 20.0 μM, 21% O2): 10 nM | IC50 ([4]; HT-1080, Experiment 2, with C2WY→AA 0.25 μM, 1% O2): 98.9 nM | IC50 ([4]; HT-1080, Experiment 2, with C2WY→AA 0.25 μM, 21% O2): 12.5 nM | IC50 ([4]; HT-1080, Experiment 2, with C2WY→AA 20.0 μM, 1% O2): 74.3 nM | IC50 ([4]; HT-1080, Experiment 2, with C2WY→AA 20.0 μM, 21% O2): 10.9 nM | IC50 ([5]; HT-1080, HT-1080 expressing scrambled peptide (scr), 1% O2): 521 nM | IC50 ([5]; HT-1080, HT-1080 expressing scrambled peptide (scr), 21% O2): 117 nM | IC50 ([5]; HT-1080, HT-1080 overexpressing NHE6^527-588 peptide, 1% O2): 224 nM | IC50 ([5]; HT-1080, HT-1080 overexpressing NHE6^527-588 peptide, 21% O2): 137 nM | Fold ([5]; NHE6^527-588, 1% O2 vs 21% O2): 1.6 fold | Fold ([5]; scr, 1% O2 vs 21% O2): 4.4 fold
